The source of these data is article PMC10385416, “Iron-Gallic Acid Peptide Nanoparticles as a Versatile Platform for Cellular Delivery with Synergistic ROS Enhancement Effect” (Pharmaceutics, 2023).

Series [1] is described as follows: Methylene blue assay of HO• production (Fenton reaction). The note with it: pH 4, H2O2, same Fe content (36 µg Fe3+), UV-Vis every 5 min over 6 h. As for the experimental part: MB assays were used to measure the HO^• production efficacy of IGPNs. IGPNs (36 µg Fe^3+) were mixed with MB (1.5 mL, 10 µg L^−1) and H2O2 (1 mL), and H2O was added to a final volume of 3 mL. The absorbance at 664 nm was recorded with a Cary 3500 UV–Vis Spectrophotometer every 5 min over 6 h.
To verify the hypothesized Fenton reaction of IGPNs, H2O2 was used as a source of hydroxyl radicals (HO^•) and to simulate the tumor microenvironment. The generation of HO^• and degradation of methylene blue (MB) upon exposure to H2O2 and different samples adjusted to the same Fe content (IGPNs or FeCl3 solution) was monitored by UV–Vis spectrometry. At pH 4 (Figure 7A), the decrease of absorbance at 664 nm was accelerated in the presence of Fe-A4**, FePVP-A4**, or Fe^3+. At the favorable acidic pH, no differences in reaction rates were observed between IGPNs and Fe^3+, since the content of Fe^3+ is obviously sufficient to drive the reaction under these conditions. In contrast, at pH 7.4, the absorbance decline was clearly more pronounced in case of IGPNs (Figure 7B). This phenomenon could be explained by an accelerated conversion of Fe^3+ to Fe^2+ in the presence of GA.

Another series has as its system HeLa cells. Briefly: Cell viability (CellTiter-Glo assay), HeLa. In kind it is cell-based, human. The note with it: 10 μM, 72 h. The protocol:
The CellTiter-Glo® Luminescent Cell Viability Assay was performed to determine the viability of HeLa or N2a cells after treatment with IGPNs or the individual components. One day prior to the treatments, HeLa or N2a cells were seeded into 96-well plates at a density of 5000 cells/well. On the next day, the medium in each well was replaced with 90 μL of fresh medium, and 10 μL of nanoparticles or control solutions (free peptides, Fe, FePVP) was added to each well corresponding to the specified final concentrations of the peptide or Fe^3+, respectively. The supernatant was removed after 72 h incubation, and 25 µL of medium as well as 25 µL of CellTiter-Glo reagent were added to each well. The plate was gently agitated for 30 min at RT, and the luminescence signal (relative light units, RLU) was recorded by a Centro LB 960 plate reader luminometer (Berthold Technologies, Bad Wildbad, Germany). The relative cell viability (in percentage) was calculated relative to control wells treated with HBG buffer as ([RLU] test/[RLU] control) × 100%. All experiments were performed in triplicate.
In general terms: ATP-based viability assays read luminescence as a measure of living cells.

Ends that are not written are not given here. Peptide text beside a SMILES is read from it.

Turning to `O.O.O.O.O.O.[Cl-].[Cl-].[Cl-].[Fe+3]` [Fe^3+, iron (III) chloride hexahydrate], in series [1], the “decrease of methylene blue absorbance at 664 nm (HO• generation) at pH 4” value is recorded as “accelerated”. For `NCCCC[C@H](NC(=O)[C@@H]1CCCN1C(=O)[C@@H](N)CCC(N)=O)C(=O)O` [SIO] (H-Gln-Pro-Lys-OH), in the series on HeLa cells, the “cytotoxicity / tolerability in words” value is “not able to mediate significant cytotoxicity”.

AVPIAQK [AVP]: the “cytotoxicity / tolerability in words” value in the series with HeLa cells is “not able to mediate significant cytotoxicity”.
